From US20130302782A1, “Methods for the Phenotypic Detection of HCV Inhibitor Resistant Subpopulations” (Laboratory Corporation of America Holdings, priority 2011, published 2013)

Test system: HCV replicon RTVs containing the NS5B region of Con1 or H77 reference and SDM mutants
Assay: PhenoSense HCV NS5B Assay: luciferase replicon resistance test vector inhibitor susceptibility in Huh7 cells
Assay type: cell-based, hepatitis C virus
Conditions: MT:WT RTV mixtures 0-100% mutant; control inhibitor
Description: RTV RNA was electroporated into a Huh7 cell line, and electroporated cells were incubated in the absence and presence of serially diluted inhibitors. RNA input was monitored by measuring the amount of luciferase activity produced in the electroporated cells at 4 hours post-electroporation. Luciferase activity is expressed as relative light units (RLU). Replication capacity (RC) was determined by evaluating luciferase activity at 72-96 hours postelectroporation in the absence of inhibitor, relative to RNA input and a control reference replicon RTV (Con1). A replication defective Con1 replicon (Con1 polymerase defective) was utilized to determine assay background (data not shown) Inhibitor susceptibility was determined by evaluating the ability of RTVs to replicate in the absence and presence of inhibitor at 72-96 hours post-electroporation. […]
Assay accuracy was assessed by evaluating the HCV polymerase inhibitor susceptibility of RTVs containing the NS5B region of well-characterized subtype 1a (H77) and 1b (Con1) reference sequences and subtype 1a and 1b reference sequences engineered by site-directed mutagenesis (SDM) to contain mutations that confer reduced susceptibility to inhibitors of HCV RdRp (FIG. 3) Inhibitor susceptibility data (IC50-FC and IC95-FC) were analyzed for concordance with phenotypic data reported in the scientific literature. […]

Substance: interferon [INF]
- susceptibility as a function of the proportion of MT RTV within a mixture: not affected
